Data as given in the supplement of paper PMC12463676, “Small-molecule dissolution of stress granules by redox modulation benefits ALS models” (Nature Chemical Biology, 2025).

Experiments:
[1] = compound: NC(=O)CCCCC1CCSS1 [lipoamide]; test: thermal stability z-score vs DMSO; higher = more thermally stabilized by treatment; settings: HeLa, lipoamide concentration 100 µM
Method: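 Cellular thermal proteome profiling in HeLa cells. Cells were treated with 100 µM lipoamide for 1 h, with or without 1 mM arsenate for a further 1 h, then heated to ten temperatures (37-66.3 °C), and soluble protein was quantified by TMT mass spectrometry relative to 0.1% DMSO controls. The thermal stability score (sum of log2 fold changes minus the abundance score) was transformed to a z-score; mean of n = 3 experiments.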

[2] = compound: O=[As]([O-])(O)O.[K+] [potassium arsenate]; test: as above; settings: HeLa; arsenate concentration 1 mM
Method: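 Cellular thermal proteome profiling in HeLa cells treated with 1 mM arsenate for 1 h (DMSO pretreatment), heated to ten temperatures (37-66.3 °C). Soluble protein was quantified by TMT mass spectrometry relative to DMSO controls; the thermal stability score was transformed to a z-score; mean of n = 3 experiments.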

[3] = arsenate co-treatment: 1 mM arsenate 1 h
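Further: each temperature applied for 3 min, abundance score taken as mean log2 fold change at the two lowest temperatures, z-score obtained by mean subtraction and division by SD.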

Sequence of UniProt Q5T8P6 (Q5T8P6 whole entry): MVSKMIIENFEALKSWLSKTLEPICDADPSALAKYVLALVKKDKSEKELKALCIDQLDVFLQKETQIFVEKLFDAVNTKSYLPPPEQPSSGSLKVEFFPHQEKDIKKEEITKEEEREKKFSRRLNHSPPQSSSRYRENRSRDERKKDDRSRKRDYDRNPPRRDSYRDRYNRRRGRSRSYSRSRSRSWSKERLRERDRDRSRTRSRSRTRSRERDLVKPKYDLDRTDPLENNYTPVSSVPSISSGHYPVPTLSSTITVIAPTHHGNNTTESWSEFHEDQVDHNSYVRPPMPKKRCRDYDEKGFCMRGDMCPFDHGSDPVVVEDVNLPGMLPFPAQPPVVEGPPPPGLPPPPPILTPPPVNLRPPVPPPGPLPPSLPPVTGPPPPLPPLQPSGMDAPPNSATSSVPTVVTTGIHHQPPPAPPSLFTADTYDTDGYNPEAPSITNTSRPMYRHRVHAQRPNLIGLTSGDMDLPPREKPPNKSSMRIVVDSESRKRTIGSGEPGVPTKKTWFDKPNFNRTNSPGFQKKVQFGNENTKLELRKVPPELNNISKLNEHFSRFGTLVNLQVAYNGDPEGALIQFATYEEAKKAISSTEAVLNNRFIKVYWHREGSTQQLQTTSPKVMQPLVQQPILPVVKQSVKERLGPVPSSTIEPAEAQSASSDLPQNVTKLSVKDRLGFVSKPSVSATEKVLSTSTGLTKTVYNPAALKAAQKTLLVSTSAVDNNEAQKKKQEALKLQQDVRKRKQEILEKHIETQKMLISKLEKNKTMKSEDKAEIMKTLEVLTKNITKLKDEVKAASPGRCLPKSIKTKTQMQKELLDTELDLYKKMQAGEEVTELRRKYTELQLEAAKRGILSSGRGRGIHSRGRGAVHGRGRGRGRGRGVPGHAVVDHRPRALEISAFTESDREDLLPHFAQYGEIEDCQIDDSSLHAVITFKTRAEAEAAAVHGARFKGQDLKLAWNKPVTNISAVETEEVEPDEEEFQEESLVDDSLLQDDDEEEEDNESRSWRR
Sequence of UniProt P42684 (P42684 whole entry): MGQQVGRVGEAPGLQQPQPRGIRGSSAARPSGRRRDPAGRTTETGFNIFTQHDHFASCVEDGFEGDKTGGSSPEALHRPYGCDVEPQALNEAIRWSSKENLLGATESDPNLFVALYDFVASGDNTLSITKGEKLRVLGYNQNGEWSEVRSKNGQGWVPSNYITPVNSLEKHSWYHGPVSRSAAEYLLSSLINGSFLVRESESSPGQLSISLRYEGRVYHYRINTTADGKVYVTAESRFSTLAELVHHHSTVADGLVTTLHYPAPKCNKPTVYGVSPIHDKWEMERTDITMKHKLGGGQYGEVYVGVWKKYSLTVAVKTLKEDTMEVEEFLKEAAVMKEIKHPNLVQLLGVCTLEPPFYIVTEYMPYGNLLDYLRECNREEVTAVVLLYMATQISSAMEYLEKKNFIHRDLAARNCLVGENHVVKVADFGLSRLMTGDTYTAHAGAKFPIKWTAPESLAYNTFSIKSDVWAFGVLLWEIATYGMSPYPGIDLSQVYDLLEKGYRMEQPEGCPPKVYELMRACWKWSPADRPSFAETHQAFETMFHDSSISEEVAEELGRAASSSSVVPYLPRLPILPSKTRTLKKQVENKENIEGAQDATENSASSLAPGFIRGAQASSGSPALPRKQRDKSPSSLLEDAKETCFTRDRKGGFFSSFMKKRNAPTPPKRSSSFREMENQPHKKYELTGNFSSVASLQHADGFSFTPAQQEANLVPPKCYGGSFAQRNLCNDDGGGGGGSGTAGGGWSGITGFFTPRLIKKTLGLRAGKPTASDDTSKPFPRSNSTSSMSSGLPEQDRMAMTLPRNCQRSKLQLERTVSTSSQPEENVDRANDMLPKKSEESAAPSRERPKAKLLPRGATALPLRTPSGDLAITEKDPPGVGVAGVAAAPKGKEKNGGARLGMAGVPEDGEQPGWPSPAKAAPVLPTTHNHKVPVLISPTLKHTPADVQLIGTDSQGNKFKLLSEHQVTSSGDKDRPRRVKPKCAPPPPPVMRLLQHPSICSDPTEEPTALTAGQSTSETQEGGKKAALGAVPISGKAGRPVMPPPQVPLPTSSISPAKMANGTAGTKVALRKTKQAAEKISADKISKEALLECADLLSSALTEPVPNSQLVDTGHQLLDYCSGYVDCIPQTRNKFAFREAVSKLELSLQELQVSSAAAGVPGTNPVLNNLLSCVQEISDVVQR
Sequence of UniProt Q92734 (Q92734 whole entry): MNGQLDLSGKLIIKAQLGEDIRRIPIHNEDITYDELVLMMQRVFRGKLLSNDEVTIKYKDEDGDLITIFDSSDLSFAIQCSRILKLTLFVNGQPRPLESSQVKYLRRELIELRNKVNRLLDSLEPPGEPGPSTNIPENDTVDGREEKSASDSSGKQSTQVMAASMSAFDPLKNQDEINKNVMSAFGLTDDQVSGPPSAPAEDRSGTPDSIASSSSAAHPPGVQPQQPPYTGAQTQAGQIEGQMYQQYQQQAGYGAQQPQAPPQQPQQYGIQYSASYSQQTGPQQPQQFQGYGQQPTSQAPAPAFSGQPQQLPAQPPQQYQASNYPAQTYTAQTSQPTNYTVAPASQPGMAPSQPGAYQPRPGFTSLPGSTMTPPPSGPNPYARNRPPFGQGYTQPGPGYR
Sequence of UniProt Q9P016 (Q9P016 whole entry): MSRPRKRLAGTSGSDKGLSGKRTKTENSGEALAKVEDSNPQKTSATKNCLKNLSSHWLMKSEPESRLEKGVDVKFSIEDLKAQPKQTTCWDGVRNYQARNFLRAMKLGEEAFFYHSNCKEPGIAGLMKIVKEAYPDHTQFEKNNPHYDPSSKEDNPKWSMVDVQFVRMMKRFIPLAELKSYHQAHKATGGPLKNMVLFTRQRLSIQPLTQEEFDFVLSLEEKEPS
Sequence of UniProt P62942 (P62942 whole entry): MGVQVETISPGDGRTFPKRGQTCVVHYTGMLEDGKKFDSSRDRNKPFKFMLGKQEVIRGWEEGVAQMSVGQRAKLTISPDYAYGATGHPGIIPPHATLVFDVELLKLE
Sequence of UniProt Q9UBS8 (Q9UBS8 whole entry): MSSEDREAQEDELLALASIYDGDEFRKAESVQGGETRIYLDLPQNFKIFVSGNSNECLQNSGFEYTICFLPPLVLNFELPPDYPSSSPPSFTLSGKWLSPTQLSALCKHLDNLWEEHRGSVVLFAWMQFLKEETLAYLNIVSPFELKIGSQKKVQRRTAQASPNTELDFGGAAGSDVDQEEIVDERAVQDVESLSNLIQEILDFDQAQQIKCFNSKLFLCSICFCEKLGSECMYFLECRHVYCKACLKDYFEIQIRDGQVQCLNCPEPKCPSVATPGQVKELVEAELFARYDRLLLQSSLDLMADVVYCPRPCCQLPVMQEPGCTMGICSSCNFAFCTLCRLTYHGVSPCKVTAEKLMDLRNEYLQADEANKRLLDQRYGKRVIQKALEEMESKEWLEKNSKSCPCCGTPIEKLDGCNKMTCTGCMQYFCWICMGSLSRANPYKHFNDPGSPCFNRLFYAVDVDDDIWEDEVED
Sequence of UniProt Q13428 (Q13428 whole entry): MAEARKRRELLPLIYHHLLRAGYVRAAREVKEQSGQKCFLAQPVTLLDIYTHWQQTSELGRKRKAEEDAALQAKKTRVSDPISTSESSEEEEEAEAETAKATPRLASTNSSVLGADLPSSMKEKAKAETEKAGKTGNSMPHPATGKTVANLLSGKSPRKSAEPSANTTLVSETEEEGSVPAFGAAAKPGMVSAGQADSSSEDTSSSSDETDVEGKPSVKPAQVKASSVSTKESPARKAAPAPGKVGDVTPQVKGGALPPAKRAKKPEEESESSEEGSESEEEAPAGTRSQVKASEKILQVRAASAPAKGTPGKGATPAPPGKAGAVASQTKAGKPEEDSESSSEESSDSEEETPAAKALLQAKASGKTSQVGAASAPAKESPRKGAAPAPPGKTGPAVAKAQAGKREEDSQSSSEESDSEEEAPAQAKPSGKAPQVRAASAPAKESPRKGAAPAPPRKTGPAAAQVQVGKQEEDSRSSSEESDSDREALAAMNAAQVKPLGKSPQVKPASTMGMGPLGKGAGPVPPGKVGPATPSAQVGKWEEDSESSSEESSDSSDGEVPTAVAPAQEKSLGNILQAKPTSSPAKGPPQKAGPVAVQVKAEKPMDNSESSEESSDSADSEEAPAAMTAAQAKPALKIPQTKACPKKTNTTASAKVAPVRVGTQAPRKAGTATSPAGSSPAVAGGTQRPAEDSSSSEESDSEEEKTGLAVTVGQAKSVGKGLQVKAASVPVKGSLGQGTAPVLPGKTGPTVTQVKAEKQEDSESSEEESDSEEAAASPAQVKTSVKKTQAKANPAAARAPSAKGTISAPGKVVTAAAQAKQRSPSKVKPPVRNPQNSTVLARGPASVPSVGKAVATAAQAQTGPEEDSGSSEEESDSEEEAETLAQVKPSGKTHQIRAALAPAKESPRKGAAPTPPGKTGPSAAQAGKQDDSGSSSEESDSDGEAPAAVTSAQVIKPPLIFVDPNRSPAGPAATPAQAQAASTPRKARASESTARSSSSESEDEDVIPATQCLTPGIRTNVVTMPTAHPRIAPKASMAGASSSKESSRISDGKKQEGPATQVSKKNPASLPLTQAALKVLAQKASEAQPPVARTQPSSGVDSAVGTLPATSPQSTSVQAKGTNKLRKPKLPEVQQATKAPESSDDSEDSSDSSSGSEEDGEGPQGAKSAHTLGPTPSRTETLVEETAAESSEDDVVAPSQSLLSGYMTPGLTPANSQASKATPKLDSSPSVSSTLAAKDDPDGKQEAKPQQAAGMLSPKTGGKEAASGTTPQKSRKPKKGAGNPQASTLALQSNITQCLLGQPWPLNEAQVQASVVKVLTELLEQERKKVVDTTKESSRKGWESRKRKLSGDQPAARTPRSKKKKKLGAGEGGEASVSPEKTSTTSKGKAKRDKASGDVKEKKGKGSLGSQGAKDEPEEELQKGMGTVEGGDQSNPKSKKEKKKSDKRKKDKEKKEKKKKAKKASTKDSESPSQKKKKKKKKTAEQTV
Sequence of UniProt P14854 (P14854 whole entry): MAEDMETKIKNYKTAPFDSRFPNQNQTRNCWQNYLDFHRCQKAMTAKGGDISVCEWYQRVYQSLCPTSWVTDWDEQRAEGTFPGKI

| Target | thermal stability z-score [1, 3] | thermal stability z-score ([1]; arsenate co-treatment: none) | thermal stability z-score [2] |
| --- | --- | --- | --- |
| FBN1 (UniProt P35555) | -2.81 | -2.71 | 0.276 |
| MED8 (UniProt Q96G25) | 0.954 | 0.843 | 0.0962 |
| NUP93 (UniProt Q8N1F7) | -0.614 | -0.482 | 0.232 |
| POLB (UniProt P06746) | -0.0159 | -0.17 | -0.111 |
| MTPAP (UniProt Q9NVV4) | 0.621 | 0.936 | -0.28 |
| TMEM63A (UniProt O94886) | -0.739 | -0.0217 | -0.159 |
| COA6 (UniProt Q5JTJ3) | 1.7 | 1.85 | 0.756 |
| GDI1 (UniProt P31150) | 0.00835 | -0.013 | -0.353 |
| POLD3 (UniProt Q15054) | -0.0475 | 0.44 | -0.487 |
| MGAT1 (UniProt P26572) | -0.313 | -0.685 | -0.0516 |
| THYN1 (UniProt Q9P016) | 0.476 | 0.00625 | -0.603 |
| USP22 (UniProt Q9UPT9) | -0.374 | 0.131 | 0.237 |
| OXNAD1 (UniProt Q96HP4) | 0.221 | 0.451 | -0.691 |
| TSTD2 (UniProt Q5T7W7) | -0.0897 | -0.178 | -0.0518 |
| RASA2 (UniProt Q15283) | -0.0591 | -0.273 | -0.334 |
| XPO6 (UniProt Q96QU8) | 0.0641 | 0.00854 | -0.339 |
| MAST2 (UniProt Q6P0Q8) | -0.0733 | -0.0383 | 0.00193 |
| TFG (UniProt Q92734) | 0.607 | 0.76 | 0.134 |

| Target | thermal stability z-score [1, 3] | thermal stability z-score ([1]; arsenate co-treatment: none) | thermal stability z-score [2] |
| --- | --- | --- | --- |
| HSDL2 (UniProt Q6YN16) | 0.183 | 0.156 | 0.41 |
| MPC2 (UniProt O95563) | 0.0545 | -0.501 | 1.64 |
| FKBP1A (UniProt P62942) | 0.374 | 0.262 | -1.96 |
| PLEKHA1 (UniProt Q9HB21) | -0.0949 | -0.105 | -0.185 |
| NUP214 (UniProt P35658) | -0.0103 | -0.132 | 0.815 |
| RNF14 (UniProt Q9UBS8) | -1.18 | 0.11 | 0.158 |
| PTPRS (UniProt Q13332) | -0.214 | -0.198 | -0.0489 |
| CNOT2 (UniProt Q9NZN8) | -0.563 | 0.153 | 1.62 |
| COX6B1 (UniProt P14854) | 0.898 | 0.644 | -0.234 |
| EIF2B2 (UniProt P49770) | 1.07 | 0.55 | 0.643 |
| TCOF1 (UniProt Q13428) | 0.957 | 0.648 | 0.157 |
| CANX (UniProt P27824) | -3.78 | -3.12 | 0.851 |
| RBM26 (UniProt Q5T8P6) | -0.0221 | 0.172 | -0.536 |
| ACO1 (UniProt P21399) | 0.259 | -0.252 | -0.945 |
| BCL2L13 (UniProt Q9BXK5) | 0.605 | 0.206 | 0.655 |
| C2CD5 (UniProt Q86YS7) | 0.332 | 0.297 | -0.133 |
| ABL1 (UniProt P00519) | -0.261 | -0.21 | 0.137 |
| ABL2 (UniProt P42684) | -0.0711 | -0.109 | -0.0185 |
